Reference: patent US8128963B2, “Methods for treating ischemic disorders using carbon monoxide” (The Trustees of Columbia University in the City Of New York, priority 1999, dated 2012)

What was measured:
[1] = test system: murine model of focal cerebral ischemia; test: Murine focal cerebral ischemia, carbon monoxide inhalation and heme oxygenase blockade; format: in vivo, mouse; settings: for infarct volume / mortality: vs controls
Description: FIGS. 23A and 23B. FIG. 23A. The effect of carbon monoxide inhalation on cerebral infarct volumes. Mice were placed in bell jars, in which they were exposed to 0.1% CO for 12 hours. After this treatment, they were removed from the bell jars and subjected to intraluminal occlusion of the middle cerebral artery. At 24 hours, animals were sacrificed and infarct volumes measured by triphenyltetrazolium chloride (TTC) staining as shown in FIG. 25. Quantification of infarction volumes (mean±SEM) is expressed as the percent of infarction of the ipsilateral hemisphere.
Protoporphyrin preparation and administration. Tin protoporphyrin IX dichloride (20 mg, Porphyrin Products, Logan, Utah), zinc protoporphyrin IX (17 mg, Porphyrin Products, Logan, Utah), or biliverdin (18 mg, Porphyrin Products, Logan, Utah) was initially dissolved in dimethyl sulfoxide (2 mL). An aliquot of this solution (200 μL) was added to normal saline (9.8 mL) and this mixture was vortexed vigorously to yield a 2.7×10^−4 M solution of the protoporphyrin. The solution container was wrapped in aluminum foil to prevent photolysis of the protoporphyrin and stored at 4° C. until used.
Micro-osmotic pumps (#1003D, Alza Corp., Palo Alto, Calif.) were loaded with this protoporphyrin solution (91 μL/pump) and implanted subcutaneously in the anesthetized mouse via a 1 cm dorsal midline incision 24 h prior to the start of surgery. These pumps administer drug solution at a rate of 0.95±0.02. μL/h. At the time of surgery an additional dose of the protoporphyrin solution was administered (0.3 mL, i.v.) prior to insertion of the intralumenal occluding catheter. Each animal received the following total (injection+pump) drug amounts over the course of the study tin protoporphyrin (0.070 mg), zinc protoporphyrin (0.059 mg), or biliverdin (0.061 mg).

Human umbilical vein ECs = test: vWF release from hypoxic endothelial cells (ELISA); format: cell-based
Description: Endothelial cell culture and exposure of cells to H or H/R. Human umbilical vein ECs were prepared from umbilical cords and grown in culture by the method of Jaffe (16) as modified by Thornton (17). Experiments utilized confluent ECs (passages 1-4) grown in Medium 199 supplemented with fetal bovine serum (15%; Gemini, Calabasas, Calif.), human serum (5%; Gemini), endothelial growth supplement (Sigma, St. Louis, Mo.), heparin (90 μg/ml; Sigma) and antibiotics, as described (17). When ECs achieved confluence, experiments were performed by placing cultures in an environmental chamber (Coy Laboratory Products, Ann Arbor, Mich.) which provided a controlled temperature (37° C.) and atmosphere with the indicated amount of oxygen, carbon dioxide (5%) and the balance made up of nitrogen. Use of this chamber for cell culture experiments has been described previously (15,18). During exposure of ECs to hypoxia (for a maximum of 16 hours), the oxygen tension in the culture medium was 14-18 torr and there was no change in the medium pH. Reoxygenation was performed by placing ECs in an ambient atmosphere containing carbon dioxide (5%) at 37° C.
Measurement of Weibel-Palade body exocytosis: ECs were plated into 24 well plates, rinsed 3 times with Hank's balanced salt solution, and then exposed to hypoxia or to normoxia for the indicated durations. For experiments in which vWF was measured, cells were maintained in serum-free medium. All other EC experiments were performed in the EC growth medium described above. For measurement of vWF, 200 μL aliquots of culture supernatant was removed at the indicated times, and a commercially available ELISA (American Diagnostica, Greenwich, Conn.), based on a polyclonal goat anti-human vWF antibody, was performed on duplicate specimens, with a standard curve generated using purified human vWF antigen supplied by the same vendor. EC P-selectin expression was determined by measuring the specific binding of a murine monoclonal anti-human P-selectin antibody (WAPS 12.2 clone, Endogen, Cambridge, Mass.; this is an IgGl which recognizes a calcium sensitive epitope and blocks P-selectin dependent neutrophil adhesion. Antibody was radiolabelled with ^125I by the lactoperoxidase method (19) using Enzymobeads (Bio-Rad, Hercules, Calif.), stored at 4° C. and used within one week of labelling. Binding assays were performed on HUVECs plated on 96 well plates, in which fresh M199 with 0.1% bovine serum albumin (Sigma, St. Louis, Mo.) was added immediately prior to each experiment. Cells were placed in a humidified environment at 37° C., and exposed to normoxia or H (in the presence or absence of 50 μM probucol, as indicated, Sigma) for the indicated durations. Cell monolayers were fixed for 15 min. with 1% paraformaldehyde^10 (cells exposed to H were fixed while still within the hypoxic environment), visually inspected to ensure that the monolayers remained intact, and washed twice with HBSS containing 0.5% bovine serum albumin (HBSS/A). Monolayers were then exposed to 10^5 cpm of ^125I-labelled anti-P-selectin antibody (WAPS 12.2) in the presence of 200 μg/mL of either unlabelled blocking antibody (WAPS 12.2) or nonblocking anti-P-selectin IgG of the same isotype (anti-GMP-140, AC1.2 clone, Becton-Dickinson, San Jose, Calif.) (20,21). After binding for 1 hour at 37° C., monolayers were washed 4 times with HBSS/A, and bound antibody was eluted with 1% triton X-100 in PBS (200 μL/well) and counted. […]

[2] = test system: hypoxic human umbillical vein ECs; test: vWF release from hypoxic HUVECs, NO/cGMP pathway; format: cell-based; settings: hypoxia pO2<20 Torr 4 hours; SIN-1 0.1 mM, 8-Bromo-cGMP 10 nM
Description: (§1) Hypoxia or free radicals induce P-selectin (PS) translocation to the endothelial cell (EC) surface, where it participates in neutrophil (PMN) adhesion during reperfusion. To explore a mechanism whereby nitrovasodilators may attenuate postischemic leukosequestration, we tested whether stimulating the NO/cGMP pathway could attenuate surface PS expression in hypoxic human umbillical vein ECs. […] Under similar conditions, addition of the NO donor 3-morpholino sydnonimine (SIN-1, 0.1 mM) or the cGMP analog 8-Bromo-cGMP (cGMP, 10 nM) caused a reduction in vWF release; Control vWF, 11±0.4 mU/mL; SIN-1, 9.1±0.3 mU/mL; cGMP, 9.7±0.2 mU/mL; p<0.005 for both SIN-1 or cGMP vs Control.

P-selectin = test: Surface P-selectin expression on hypoxic HUVECs (radiolabeled anti-PS antibody binding); format: cell-based, human
Description: as §1

hypoxic HUVECs = test: Immunofluorescent adherence assay, HL60 binding to hypoxic HUVECs; format: cell-based, human
Description: as §1

[3] = test system: lung ischemia (lung preservation for transplantation); test: Rat orthotopic left lung transplantation after 6 h preservation, donor CO pretreatment; format: in vivo
Description: Inbred male Lewis rats (250-300 gms) were used for all experiments according to a protocol approved by the Institutional Animal Care and Use Committee at Columbia University, in accordance with guidelines set forth by the American Academy for Accreditation of Laboratory Animal Care (AAALAC). Lung transplant experiments were performed in the following manner. Donor rats were given 500 units of heparin intravenously, and the pulmonary artery (PA) was flushed with a 30 mL volume of 4° C. preservation solution at a constant pressure of 20 mm Hg. When lungs are preserved in this manner, most of the infused flush solution comes out of a left atrial vent created in the lung donor, as well as out of the pulmonary veins following transection.
The left lung was then harvested, a cuff was placed on each vascular stump, a cylinder was inserted into the bronchus, and the lung was submerged for 6 hours in 4° C. preservation solution which was identical to the PA flush solution. Gender/strain/size matched rats were anesthetized, intubated, and ventilated with 100% O2 using a rodent ventilator (Harvard Apparatus, South Natick, Mass.). Orthotopic left lung transplantation was performed through a left thoracotomy using a rapid cuff technique for all anastomoses, with warm ischemic times maintained below 5 minutes. The hilar cross-clamp was released, re-establishing blood flow and ventilation to the transplanted lung. A snare was then passed around the right PA, and Millar catheters (2F; Millar Instruments, Houston, Tex.) were introduced into the main PA and the left atrium (LA). A Doppler flow probe (Transonics, Ithaca, N.Y.) was placed around the main PA.
Online hemodynamic monitoring was accomplished using MacLab and a Macintosh IIci computer. Measured hemodynamic parameters included LA and PA pressures (mm Hg), and PA flow (mL/min). Arterial oxygen tension (pO2, mm Hg) was measured during inspiration of 100% O2 using a model ABL-2 gas analyzer (Radiometer, Copenhagen, Denmark). PVRs were calculated as (mean PA pressure—LA pressure)/mean PA flow and expressed as mm Hg/mL/min. After baseline measurements, the native right PA was ligated and serial measurements taken every five minutes until the time of euthanasia at 30 minutes (or until recipient death).
At the indicated time before surgery (4,8, or 12 hours), rats were placed in a bell jar, and carbon monoxide was administered at various concentrations (0.01%, 0.03%, or 0.1%), with the remainder of the gas mixture consisting of room air. (The gas was passed through a jar of water prior to administration, in order to humidify it for animal comfort). At the indicated times following initiation of exposure, rats were anesthetized and lungs harvested as described above. These donor lungs were used in subsequent lung transplant experiments.

acute ischemic stroke = settings: cited from earlier work
[4] = CO-pretreated donor lungs vs untreated controls

For `C=CC1=C(C)/C(=C/C2=NC(=C\c3[nH]c(/C=C4\NC(=O)C(C)=C4C=C)c(C)c3CCC(=O)O)/C(CCC(=O)O)=C2C)NC1=O` [Biliverdin, biliverdin], the “effect on stroke outcome (cerebral protection)” value ([1]; osmotic pump plus i.v. dose, total 0.061 mg) was “without effect”.

With `O=C(O)CN(CCOCCOCCN(CC(=O)O)CC(=O)O)CC(=O)O` [EGTA, ethyleneglycol bis (aminoethylether) tetraacetic acid] the “H-induced EC release of vWF” value (Human umbilical vein ECs; 0 mM Ca++ with 2 mM EGTA, 8 hrs) was “even more suppressive effect”.

In the case of `N=c1c[n+](N2CCOCC2)[n-]o1` [SIN-1, 3-morpholino sydnonimine], the vWF release [2] is reported as 9.1±0.3 mU/mL, the “PS expression in calcium-free medium” value (P-selectin; ECs in calcium-free medium) is reported as “Neither SIN-1 nor cGMP could further reduce PS expression” and the “decrease of surface PS expression vs controls” value (P-selectin; hypoxia 4 hours, SIN-1 0.1 mM, 8-Bromo-cGMP 10 nM) is reported as 40%. The “decrease of HL60 binding to hypoxic HUVECs vs controls” value (hypoxic HUVECs) was 53%.

With `[C-]#[O+]` [carbon monoxide] the “mortality at 24 hours” value ([1]; 0.1% CO inhaled for 12 hours before MCA occlusion) was “reduces mortality”, the cerebral infarct volume ([1]; 0.1% CO inhaled for 12 hours before MCA occlusion, 24 hours) was “reduces infarct volumes” and the “inhaled CO dose providing optimal protection (infarct volume)” value ([1]; dose-response of inhaled CO) was 0.1%. The level of protection ([3]; 0.01% dose) was “least protection”, the level of protection ([3]; 0.03% dose) was “intermediate level of protection” and the level of protection ([3]; 0.1% dose) was “best protection”. For the same compound, the survival of recipients ([3]; CO-pretreated donor lungs vs controls) was “Improved survival”, the “arterial oxygenation of recipients” value [3, 4] was “Improved arterial oxygenation” and the “pulmonary arterial blood flow” value [3, 4] was “Increased pulmonary arterial blood flow”. The pulmonary vascular resistance [3, 4] was “reduced pulmonary vascular resistance” and the “time dependence of protection” value ([3]; exposure 4, 8 or 12 hours before surgery) was “longer exposures appeared to provide the greatest protection”.

For `CC(C)(Sc1cc(C(C)(C)C)c(O)c(C(C)(C)C)c1)Sc1cc(C(C)(C)C)c(O)c(C(C)(C)C)c1` [probucol], the “vWF levels following reoxygenation of hypoxic ECs” value (Human umbilical vein ECs; probucol 50 μM) was “blunt the further increase in vWF levels”, the “effect on H-mediated exocytosis of Weibel-Palade bodies (vWF release)” value (Human umbilical vein ECs; probucol 50 μM added at onset of H) was “no effect” and the “vWF in culture supernatant” value (Human umbilical vein ECs; probucol 50 μM added at onset of H, 6 hours of H) was 4.7±0.31×10^−3 U/ml.

In the case of `C=CC1=C(C)C2=Cc3c(C=C)c(C)c4[n]3[Sn]([Cl])([Cl])[n]3c(c(C)c(CCC(=O)O)c3=CC3=NC(=C4)C(C)=C3CCC(=O)O)=CC1=N2` [tin protoporphyrin, Tin protoporphyrin IX dichloride], the infarct volume ([1]; heme oxygenase blockade) is reported as “significantly larger infarct volumes”, the mortality ([1]; heme oxygenase blockade) is reported as “increased mortality” and the neurological outcome ([1]; heme oxygenase blockade, vs untreated controls) is reported as “worse neurological outcomes”. The “local CO levels by direct measurement” value ([1]; osmotic pump from 24 h before surgery plus i.v. dose) was “reduced local CO levels”.

With `C=CC1=C(C)c2cc3[n-]c(cc4[n-]c(cc5nc(cc1n2)C(C)=C5C=C)c(C)c4CCC(=O)O)c(CCC(=O)O)c3C.[Zn+2]` [zinc protoporphyrin IX] the infarct volume ([1]; heme oxygenase blockade) was “increase” and the mortality ([1]; heme oxygenase blockade) was “increase”.

For streptokinase, the “rate of hemorrhagic transformation” value (acute ischemic stroke; given in the first several (<6) hours following stroke onset) is listed as “up to 67%”, the 6 month mortality (acute ischemic stroke; outside the therapeutic window) is listed as 73% and the 10 day mortality (acute ischemic stroke; outside the therapeutic window) is listed as 34.0%.
